Assay results: US20240067693A1, “POLYPEPTIDES AND USES THEREOF” (MEDIMMUNE LIMITED, priority 2020, published 2024)
Numbered stars: 1 amine (or outer) side, 2 acyl side, 3 side chain; on linkers, the order of the positions; unused ones are H or OH. Bridge positions count the residues as written; N and C are the ends. Square brackets hold non-standard residues; d marks the D form. Side chains are listed from the residue outwards. Ends that are not written are not given here. Peptide text beside a SMILES is read from it. * marks the point of attachment. C18 diacid = O=C(O)CCCCCCCCCCCCCCCCC(=O)*; γGlu = O=C(O)[C@H](CCC(=O)[*:2])N[*:1]; Aib = CC(C)(N)C(=O)O

Columns and labels:
[1] = target: T1, human calcitonin receptor (hCTR) (Homo sapiens, UniProt P30988); assay: cAMP production in 1321N1 cells with stable recombinant expression of human calcitonin receptor (hCTR); assay type: cell-based; conditions: cAMP, 1321N1 cells, assay buffer with 0.1% BSA; read-out: EC50 (pM) hCTR
T1 construct: expressed in transfected cells
T1 sequence (P30988 25-474): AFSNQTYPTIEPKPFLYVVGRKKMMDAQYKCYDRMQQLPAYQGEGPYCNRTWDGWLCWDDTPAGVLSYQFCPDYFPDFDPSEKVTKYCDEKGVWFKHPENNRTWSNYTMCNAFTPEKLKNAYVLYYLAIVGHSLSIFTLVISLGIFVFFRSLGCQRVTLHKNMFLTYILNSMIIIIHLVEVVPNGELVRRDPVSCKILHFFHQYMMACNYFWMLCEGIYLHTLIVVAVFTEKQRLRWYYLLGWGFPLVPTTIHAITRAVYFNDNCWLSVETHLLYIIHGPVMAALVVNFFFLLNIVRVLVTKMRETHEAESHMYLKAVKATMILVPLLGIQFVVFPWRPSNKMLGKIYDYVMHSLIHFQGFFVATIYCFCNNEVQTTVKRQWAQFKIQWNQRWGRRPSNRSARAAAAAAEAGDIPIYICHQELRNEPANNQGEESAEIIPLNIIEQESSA
How it was run: (§1)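 EC50 values come from 4-parameter logistic fits of HTRF cAMP signal, normalised to maximal calcitonin or amylin effect. Peptides were tested in duplicate for 30 min at RT in IBMX-containing (0.5 mM) BSA/HEPES buffer pH 7.4 on stable 1321N1 (human CTR, AMYR3) or HEK (rat CTR, AMYR3) lines.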

[2] = target: T2, rat calcitonin receptor (rat CTR) (Rattus norvegicus, UniProt P32214); assay: cAMP production in HEK cells with stable recombinant expression of rat calcitonin receptor (rat CTR); assay type: cell-based; conditions: assay buffer with 0.1% BSA
T2 construct: expressed in transfected cells
T2 sequence (P32214 25-516): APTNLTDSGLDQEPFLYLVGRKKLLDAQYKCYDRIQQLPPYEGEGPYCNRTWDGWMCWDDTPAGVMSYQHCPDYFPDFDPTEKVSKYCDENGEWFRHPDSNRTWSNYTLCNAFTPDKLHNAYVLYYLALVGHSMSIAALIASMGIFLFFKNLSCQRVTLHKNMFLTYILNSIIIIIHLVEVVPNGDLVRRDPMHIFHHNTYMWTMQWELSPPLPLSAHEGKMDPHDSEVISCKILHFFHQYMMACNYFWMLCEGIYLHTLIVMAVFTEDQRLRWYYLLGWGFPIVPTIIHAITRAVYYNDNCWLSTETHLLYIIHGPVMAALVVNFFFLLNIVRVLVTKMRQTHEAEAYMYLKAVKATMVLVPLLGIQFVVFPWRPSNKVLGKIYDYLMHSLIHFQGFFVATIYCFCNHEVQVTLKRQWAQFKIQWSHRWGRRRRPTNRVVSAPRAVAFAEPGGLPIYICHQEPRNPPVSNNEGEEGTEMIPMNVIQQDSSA
How it was run: as §1

lean rats = assay: Rat acute food intake study; assay type: in vivo; conditions: lean male Sprague Dawley rats, 20 nmol/kg subcutaneously
How it was run: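 Male Sprague Dawley rats (n=7/group), fasted 6 h, received 20 nmol/kg test compound or 60 nmol/kg pramlintide subcutaneously 30 min before food return at dark onset. Food intake recorded automatically in home cages over 3 days, binned hourly and analysed as cumulative dark-period intake; body weight taken daily.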

[3] = target: T3, human amylin receptor (calcitonin receptor co-expressed with receptor activity modifying protein, RAMP3) (hAMYR3) (Homo sapiens, UniProt O60896+P30988); assay: cAMP production in 1321N1 cells with stable recombinant expression of human amylin receptor (hAMYR3); assay type: cell-based
T3 construct: expressed in transfected cells
T3 sequence (P30988 25-474): T1 sequence (P30988 25-474)
T3 sequence (O60896 24-148 partner): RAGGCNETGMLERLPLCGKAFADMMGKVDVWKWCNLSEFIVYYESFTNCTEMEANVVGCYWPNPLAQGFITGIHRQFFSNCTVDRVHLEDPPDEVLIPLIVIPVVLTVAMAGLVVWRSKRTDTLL
How it was run: as §1

[4] = Pharmacokinetic determination via IV and SC administration in Sprague Dawley rats; conditions: male, rat, plasma, 20 nmol/kg
[5] = target: T4, rat amylin receptor (calcitonin receptor co-expressed with receptor activity modifying protein, RAMP3) (Rat AMYR3) (Rattus norvegicus, UniProt P32214+Q9JJ73); assay: cAMP production in HEK cells with stable recombinant expression of rat amylin receptor (Rat AMYR3); assay type: cell-based; conditions: assay buffer with 0.1% BSA
T4 construct: expressed in transfected cells
T4 sequence (P32214 25-516): T2 sequence (P32214 25-516)
T4 sequence (Q9JJ73 23-147 partner): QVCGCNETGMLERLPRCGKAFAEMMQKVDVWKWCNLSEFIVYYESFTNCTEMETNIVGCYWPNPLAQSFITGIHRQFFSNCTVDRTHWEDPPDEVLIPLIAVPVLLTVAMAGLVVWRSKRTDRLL
How it was run: as §1

[6] = Roth et al. Br J Pharmacol 2012; cited from earlier work

Molecule	EC50 [1] [pM]	EC50 [2] [pM]	Cummulative food intake (% vehicle treated intake) At 12 h (lean rats; at 12 h) [% vehicle treated intake]	Cummulative food intake (% vehicle treated intake) At 24 h (lean rats; at 24 h) [% vehicle treated intake]	Cummulative food intake (% vehicle treated intake) At 48 h (lean rats; at 48 h) [% vehicle treated intake]	Ratio (selectivity hAMYR vs hCTR, ratio of EC50 values at the two receptors) ([3]; EC50 hCTR / EC50 hAMYR3)	EC50 ([3]; cAMP, 1321N1 cells, assay buffer with 0.1% BSA, read-out: EC50 (pM) hAMYR3) [pM]	half-life ([4]; iv) [h]	half-life ([4]; sc) [h]	EC50 [5] [pM]	terminal half-life in rats [6]
CC[C@H](C)[C@H](NC(=O)[C@@H]1CCCN1C(=O)CNC(=O)[C@H](Cc1ccccc1)NC(=O)[C@H](CC(N)=O)NC(=O)[C@H](CC(N)=O)NC(=O)[C@H](CO)NC(=O)[C@H](CO)NC(=O)[C@H](Cc1c[nH]cn1)NC(=O)C(C)(C)NC(=O)[C@H](CC(C)C)NC(=O)[C@H](Cc1ccccc1)NC(=O)[C@H](CC(N)=O)NC(=O)[C@H](C)NC(=O)[C@H](CC(C)C)NC(=O)[C@H](CCCNC(=N)N)NC(=O)[C@H](CCC(N)=O)NC(=O)[C@@H](NC(=O)[C@H](C)NC(=O)[C@@H]1CSSC[C@H](NC(=O)[C@@H](N)CCCCNC(=O)CC[C@H](NC(=O)CCCCCCCCCCCCCCCCC(=O)O)C(=O)O)C(=O)N[C@@H](CC(N)=O)C(=O)N[C@@H]([C@@H](C)O)C(=O)N[C@@H](C)C(=O)N[C@@H]([C@@H](C)O)C(=O)N1)[C@@H](C)O)C(=O)N[C@@H](CC(C)C)C(=O)N1CCC[C@H]1C(=O)N1CCC[C@H]1C(=O)N[C@H](C(=O)N[C@@H](CC(N)=O)C(=O)N[C@H](C(=O)NCC(=O)N[C@@H](CO)C(=O)N[C@@H](CC(N)=O)C(=O)N[C@H](C(=O)N[C@@H](Cc1ccc(O)cc1)C(N)=O)[C@@H](C)O)C(C)C)[C@@H](C)O [Peptide 149] (H-K([γGlu-C18 diacid])CNTATCATQRLANFL[Aib]HSSNNFGPILPPTNVGSNTY-NH2; disulfide 2-7; N-terminus assumed)	1200	522	31	31.8	17.5	9.2	130	6.9	9.3	5.6	
amylin (KCNTATCATQRLANFLVHSSNNFGAILSSTNVGSNTY; not fully specified (C-terminus, bridges); cysteine pairing not given here; UniProt P10997 34-70, looked up) [native amylin, of which pramlintide is a synthetic analogue with three proline substitutions]											around 13 minutes
